Reference: ChEMBL document CHEMBL1158941, “Diterpenes from the Pohnpeian marine sponge Chelonaplysilla sp” (J Nat Prod, 1991)
Activity calls are given as the source filed them. No cut-off for these calls is given here.

Key:
Bacillus subtilis [1] = assay: Antimicrobial activity against Bacillus subtilis at 5 ug/disk; assay type: functional, organism-based
Bacillus subtilis [2] = assay: Antimicrobial activity against Bacillus subtilis at 50 ug/disk; assay type: functional, organism-based

| SMILES | Activity (Bacillus subtilis [1]) | Activity (Bacillus subtilis [2]) |
| --- | --- | --- |
| C=C([C@@H]1[C@@H]2OC(=O)C[C@H]1[C@H](OC(C)=O)O2)[C@H]1CC[C@H]2C(C)(C)CCCC(=C)[C@]12C | Active |  |
| C=C1CCCC(C)(C)[C@@H]2CC[C@@](C)([C@@H]3[C@H]4CC(=O)O[C@H]4O[C@H]3O)[C@H]12 |  | Active |
| C=C1CCCC(C)(C)[C@@H]2CC[C@@](C)([C@@H]3[C@@H]4OC(=O)C[C@H]3[C@H](OC(C)=O)O4)[C@H]12 | Active |  |
